“Also recorded” adds a separate entry of the source.
Legend:
rats (Rattus norvegicus) = assay: Rodenticidal effect in rats fed treated diet (Table I); format: in vivo, Spraque-Dawley albino strain, male; settings: per rat
From the text: A quantity of a standard animal feed of the following composition: Ingredients Percent Lbs./Ton ______________________________________ Corn, Yellow, Ground 42.275 845.5 Oats, Ground 10.0 200.0 Wheat Middlings 10.0 200.0 Soybean Oil Meal, Solvent Extracted Dehulled, 50 % 18.0 360.0 Skimmed Milk, Dried 5.0 100.0 Corn, Distillers Dried Solubles 2.5 50.0 Alfalfa Meal, Dehydrated, 17 % 2.5 50.0 Whey, Whole Dried 1.0 20.0 Fish Meal with Solubles 4.0 80.0 Animal Fat, Beef Tallow 2.0 40.0 Dicalcium Phosphate, Feed Grade 0.5 10.0 Calcium Carbonate 1.0 20.0 Salt 0.3 6.0 Trace Mineral Premix AN-03 0.2 4.0 Vitamin Premix CK-1 0.5 10.0 Vitamin E Premix 0.1 2.0 Methionine Hydroxy Analog (HYDAN) 0.125 2.5 Total 100.00 2000.0 ______________________________________
was divided into two portions. To each portion, there was added an amount of 1-methoxy-6-chloro-2-heptafluoro-n-propyl-1H-imidazo(4,5-b)pyridine, so that one portion contained 800 ppm of the compound, and the other portion contained 200 ppm of the compound.
Other modified feeds were prepared as described above but containing, in lieu of the compound identified above, 1-methoxy-6-bromo-2-heptafluoro-n-propyl-1H-imidazo(4,5-b)pyridine, 6-chloro-2-pentafluoroethyl-1H-imidazo(4,5-)pyridine, or 1-methoxy-6-chloro-2-heptafluoroisopropyl-1H-imidazo(4,5-b)pyridine, in the same or other concentrations,
EXAMPLES 2-28 Representative compounds were evaluated for rodenticidal effect in rats (Rattus norvegicus, Spraque-Dawley albino strain, male, each weighing 50-60 grams). Each compound to be evaluated was formulated as described in Example 1. Control rats were maintained on the standard animal feed described in Example 1. Control rats and rats to be treated were randomly assigned. Each group contained 5 or 6 rats. Feeding of the respective diet was ad libitum. Consumption per rat per day was checked, except on weekend days, and the rats were weighed and usually necropsied at death or termination of the experiment (generally, day 10).
In the evaluation of several of the compounds, the rats were observed closely to determine the day of death. Death occurred on the day marked by "X"; where no "X" is marked, the rat was found dead on the morning following the last indicated feeding. For the remaining compounds, no such close observation was made, and the rat was found dead on the morning following the last indicated feeding. Generally, the rats were not observed or feed consumption determined on weekend days.

[1] = system: whole blood clotting time; assay: Prolongation of whole blood clotting time in female rats (Table II); format: in vivo, Rattus norvegicus, Sprague-Dawley strain; settings: 0.06 % in diet
Procedure: 1-Hydroxy-6-chloro-2-pentafluoroethyl-1H-imidazo(4,5-b)-pyridine was evaluated for prolongation of clotting time. The experiment was conducted in female rats (Rattus norvegicus, Sprague-Dawley strain) using a standard laboratory diet. A group of four control rats was fed the unmodified diet and another group of four rats was fed a treated diet, the standard laboratory diet modified by the incorporation therein of 0.06 percent of the 1-hydroxy-6-chloro-2-pentafluoroethyl-1H-imidazo(4,5-b)pyridine.
On the sixth day of feeding, a blood sample was taken from each rat and was analyzed for whole blood clotting time. The analysis was carried out on a BBL Fibrometer Precision Coagulation Timer, produced by BBL Fibrometer, a Division of Becton, Dickinson and Co., Canada, Ltd.; at Mississauga, Ontario. Two analyses were made of each sample.

[2] = system: rat population (Rattus norwegius); assay: Field trial against a rat population; format: in vivo; settings: 100 ppm in feed
Procedure: A field trial was conducted to evaluate the efficacy of 1-methoxy-5,6-dichloro-2-heptafluoro-n-propyl-1H-imidazo(4,5-b)-pyridine. The trial was conducted in an area of waste ground covered by grass and brush and recently cut off, by construction activity, from a nearby abandoned stockyard. The trial area indicated the presence of a rat population; this was confirmed by supplying to the area a conventional pelleted hog feed. It was consumed steadily at the rate of 8 lbs./day, corresponding to a population of about 145 rats consuming an average of 25 g. of feed/day. After the conventional feed had been supplied for three weeks, the trial period began. The rat species was believed to be Rattus norwegius, and this was later confirmed upon recovery of the dead animals.
During the trial period, the conventional feed was replaced by an adequate supply of a modified feed, which was identical to the conventional feed except that it contained 100 ppm (0.01 percent) of 1-methoxy-5,6-dichloro-2-heptafluoro-n-propyl-1H-imidazo(4,5-b)pyridine.
Food consumption was estimated visually and was as follows, counting the initiation of the trial period as the first day: […]

prothrombin time = assay: Prothrombin time in male rats (Tables III and IV); format: in vivo, rats (Harlan albino strain); settings: group of 5 rats; for Deaths / Range of Prothrombin Time: five days
Procedure: Representative compounds were evaluated for prothrombin time in standard laboratory male rats (Harlan albino strain) of weanling age. A standard laboratory animal diet was fed to one group of 5 rats to serve as a control; other groups of 5 rats received modified diets, each diet being the standard laboratory animal diet modified by the incorporation therein of 0.08 percent of the respective compound. Feeding was continued for five days, at which time a blood sample was taken from each rat and analyzed for prothrombin time. The analytical method was that of A. J. Quick, "The Determination of Prothrombin," 190 Am. J. Med. Sci. 501 (1935): and it was performed on the "Electra 600", a machine available from the Medical Laboratory Automation, Inc. The results are reported in Table III.
Additional evaluations of the effect of representative compounds of prothrombin time were conducted. The procedures were the same as those reported in Examples 30-33 except that the concentration of the respective compound was 0.02 percent.

Structure (SMILES): COCOn1c(C(F)(F)F)nc2ncc(Cl)cc21 [1-(methoxymethoxy)-6-chloro-2-trifluoromethyl-1H-imidazo(4,5-b)pyridine]
- Weight change (rats (Rattus norvegicus); 700 ppm in diet): +13 grams

Structure (SMILES): C=CCOn1c(C(F)(F)C(F)F)nc2nc(Cl)c(Cl)cc21 [1-allyloxy-5,6-dichloro-2-(1,1,2,2-tetrafluoroethyl)-1H-imidazo(4,5-b)pyridine]
- Weight change (rats (Rattus norvegicus); 100 ppm in diet): 0 grams

Structure (SMILES): O=C(C=Cc1ccccc1)On1c(C(F)(F)F)nc2ncc(Cl)cc21 [1-cinnamoyloxy-6-chloro-2-trifluoromethyl-1H-imidazo(4,5-b)pyridine]
- Necropsy results (rats (Rattus norvegicus); 1000 ppm in diet): SH, IH

Structure (SMILES): On1c(C(F)(F)C(F)(F)F)nc2ncc(Cl)cc21 [1-hydroxy-6-chloro-2-pentafluoroethyl-1H-imidazo(4,5-b)pyridine]
- Death during clotting time study ([1]; per animal): died on day 5; also recorded: died on day 6
- Whole Blood Clotting Time ([1]; sixth day of feeding, two analyses per sample): > 600 s

Structure (SMILES): CC(C)On1c(C(F)(F)F)nc2nc(Cl)c(Cl)cc21 [1-isopropoxy-5,6-dichloro-2-trifluoromethyl-1H-imidazo(4,5-b)pyridine]
- Weight change (rats (Rattus norvegicus); 200 ppm in diet): 0 grams

Structure (SMILES): COn1c(C(F)(F)C(F)(F)C(F)(F)F)nc2nc(Cl)c(Cl)cc21 [1-methoxy-5,6-dichloro-2-heptafluoro-n-propyl-1H-imidazo(4,5-b)pyridine]
- Bait shyness [2]: no bait shyness
- Eradication of rodents from the trial area [2]: essentially complete eradication of rodents from the trial area
- First day rat corpses were found [2]: 4 days
- Necropsy of corpses ([2]; 31 of 40 corpses necropsied): uniformly showed internal hemorrhage, generally of the intestines
- Corpses found ([2]; total): 40 corpses

Structure (SMILES): COn1c(C(F)(F)F)nc2nc(Cl)c(Cl)cc21 [1-methoxy-5,6-dichloro-2-trifluoromethyl-1H-imidazo(4,5-b)pyridine]
- Weight change (rats (Rattus norvegicus); 200 ppm in diet): -12 grams

Structure (SMILES): COn1c(C(F)(F)F)nc2nc(Cl)ccc21 [1-methoxy-5-chloro-2-trifluoromethyl-1H-imidazo(4,5-b)pyridine]
- Weight change (rats (Rattus norvegicus); 800 ppm in diet): -11 grams

Structure (SMILES): COn1c(C(F)(F)C(F)(F)C(F)(F)F)nc2ncc(Br)cc21 [1-methoxy-6-bromo-2-heptafluoro-n-propyl-1H-imidazo(4,5-b)pyridine]
- Necropsy results (rats (Rattus norvegicus); 200 ppm in diet): LH, IH

Structure (SMILES): COn1c(C(F)(F)C(F)(F)C(F)(F)F)nc2ncc(Cl)cc21 [1-methoxy-6-chloro-2-heptafluoro-n-propyl-1H-imidazo(4,5-b)pyridine]
- Necropsy results (in words) (rats (Rattus norvegicus); 200 ppm in diet): bloody nose
- Necropsy results (in words) (rats (Rattus norvegicus); 800 ppm in diet): bloody nose

Structure (SMILES): COn1c(C(F)(C(F)(F)F)C(F)(F)F)nc2ncc(Cl)cc21 [1-methoxy-6-chloro-2-heptafluoroisopropyl-1H-imidazo(4,5-b)pyridine]
- Necropsy results (rats (Rattus norvegicus); 200 ppm in diet): TH, SH
- Necropsy results (rats (Rattus norvegicus); 300 ppm in diet): AH, TH, SH; also recorded: TH, Test.H

Structure (SMILES): COn1c(C(F)(F)C(F)(F)F)nc2ncc(Cl)cc21 [1-methoxy-6-chloro-2-pentafluoroethyl-1H-imidazo(4,5-b)pyridine]
- Deaths (prothrombin time; 0.02 percent in diet): none
- Range of Prothrombin Time (prothrombin time; 0.02 percent in diet): 53.1 to 90.5 s
- Deaths (prothrombin time; 0.08 percent in diet): 3
- Range of Prothrombin Time (prothrombin time; 0.08 percent in diet): 180 to 200 s
- Day(s) of deaths (prothrombin time; 0.08 percent in diet): 170000 to 350000 s

Structure (SMILES): CNC(=O)On1c(C(F)(F)F)nc2ncc(Cl)cc21 [1-methylcarbamoyloxy-6-chloro-2-trifluoromethyl-1H-imidazo(4,5-b)pyridine]
- Deaths (prothrombin time; 0.02 percent in diet): none
- Range of Prothrombin Time (prothrombin time; 0.02 percent in diet): 17.6 to 22.1 s
- Deaths (prothrombin time; 0.08 percent in diet): none
- Range of Prothrombin Time (prothrombin time; 0.08 percent in diet): 39.6 to 98.6 s

Structure (SMILES): CC(C)(C)C(=O)On1c(C(F)(F)F)nc2ncc(Cl)cc21 [1-pivaloyloxy-6-chloro-2-trifluoromethyl-1H-imidazo(4,5-b)pyridine]
- Necropsy results (rats (Rattus norvegicus); 750 ppm in diet): TH, IH; also recorded: NH, IH
- Necropsy results (rats (Rattus norvegicus); 1500 ppm in diet): NH, IH

Structure (SMILES): FC(F)(F)c1nc2nc(Cl)c(Cl)cc2[nH]1 [5,6-dichloro-2-trifluoromethyl-1H-imidazo(4,5-b)pyridine]
- Weight change (rats (Rattus norvegicus); 50 ppm in diet): +13 grams

Structure (SMILES): FC(F)C(F)(F)c1nc2ncc(Cl)cc2[nH]1 [6-chloro-2-(1,1,2,2-tetrafluoroethyl)-1H-imidazo(4,5-b)pyridine]
- Necropsy results (rats (Rattus norvegicus); 150 ppm in diet): TH, SIH; also recorded: NH, IH

Structure (SMILES): FC(F)(F)c1nc2ncc(Cl)cc2[nH]1 [6-chloro-2-trifluoromethyl-1H-imidazo(4,5-b)pyridine]
- Deaths (prothrombin time; 0.02 percent in diet): none
- Deaths (prothrombin time; 0.08 percent in diet): 5
- Day(s) of deaths (prothrombin time; 0.08 percent in diet): three
